# Reference: patent US10766893B2 (priority 2017, dated 2020)
# Key:
# Experiment in all cases: biochemical
# Assay type in all cases: biochemical
# Conditions in all cases: 15 nM tritium labelled cAMP, 1 hr at room temperature
# PDE1C = PDE1C (Homo sapiens (Human), UniProt Q14123)
# From the text: (§1) Table 1 lists the IC50 value for inhibition of PDE1 by the compounds of the invention. […] PDE1 assays are described in the Experimental Section.
# PDE1B = PDE1B (Homo sapiens (Human), UniProt Q01064)
# From the text: as §1
# PDE1A = PDE1A (Homo sapiens (Human), UniProt P54750)
# From the text: as §1
# PDE1A, sequence (P54750 whole entry): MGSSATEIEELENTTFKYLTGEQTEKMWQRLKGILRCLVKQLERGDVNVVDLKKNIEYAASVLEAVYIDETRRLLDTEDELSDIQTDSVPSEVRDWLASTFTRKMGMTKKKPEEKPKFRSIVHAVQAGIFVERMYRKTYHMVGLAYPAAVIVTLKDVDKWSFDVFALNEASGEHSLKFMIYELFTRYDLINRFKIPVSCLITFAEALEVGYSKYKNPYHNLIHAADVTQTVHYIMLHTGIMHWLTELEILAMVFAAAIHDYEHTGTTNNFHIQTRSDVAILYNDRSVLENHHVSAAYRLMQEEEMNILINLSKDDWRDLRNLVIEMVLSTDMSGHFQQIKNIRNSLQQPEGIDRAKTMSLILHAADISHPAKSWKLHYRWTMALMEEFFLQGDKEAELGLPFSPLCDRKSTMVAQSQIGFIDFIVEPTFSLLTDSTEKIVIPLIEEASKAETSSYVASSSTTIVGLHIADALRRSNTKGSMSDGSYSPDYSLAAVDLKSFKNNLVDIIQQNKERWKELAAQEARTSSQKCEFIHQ
# PDE1C, sequence (Q14123 whole entry): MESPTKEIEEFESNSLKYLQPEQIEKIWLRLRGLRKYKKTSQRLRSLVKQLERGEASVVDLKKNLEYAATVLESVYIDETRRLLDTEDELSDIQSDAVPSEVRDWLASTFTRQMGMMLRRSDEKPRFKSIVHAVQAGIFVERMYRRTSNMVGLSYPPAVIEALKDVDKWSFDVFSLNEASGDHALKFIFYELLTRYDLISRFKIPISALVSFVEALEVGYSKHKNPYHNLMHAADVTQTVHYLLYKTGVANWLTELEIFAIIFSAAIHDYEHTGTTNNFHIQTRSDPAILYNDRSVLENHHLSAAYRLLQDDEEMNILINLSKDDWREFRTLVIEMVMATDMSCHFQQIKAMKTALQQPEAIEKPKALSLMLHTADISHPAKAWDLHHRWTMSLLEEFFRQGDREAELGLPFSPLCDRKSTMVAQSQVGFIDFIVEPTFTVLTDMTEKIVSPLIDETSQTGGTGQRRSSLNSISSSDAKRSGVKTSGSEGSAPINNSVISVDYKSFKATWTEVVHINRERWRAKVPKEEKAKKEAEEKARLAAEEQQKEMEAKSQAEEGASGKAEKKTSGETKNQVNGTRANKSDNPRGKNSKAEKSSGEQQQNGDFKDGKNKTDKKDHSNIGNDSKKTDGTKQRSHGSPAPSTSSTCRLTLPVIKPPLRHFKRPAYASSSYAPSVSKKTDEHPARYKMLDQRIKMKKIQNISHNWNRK
# PDE1B, sequence (Q01064 whole entry): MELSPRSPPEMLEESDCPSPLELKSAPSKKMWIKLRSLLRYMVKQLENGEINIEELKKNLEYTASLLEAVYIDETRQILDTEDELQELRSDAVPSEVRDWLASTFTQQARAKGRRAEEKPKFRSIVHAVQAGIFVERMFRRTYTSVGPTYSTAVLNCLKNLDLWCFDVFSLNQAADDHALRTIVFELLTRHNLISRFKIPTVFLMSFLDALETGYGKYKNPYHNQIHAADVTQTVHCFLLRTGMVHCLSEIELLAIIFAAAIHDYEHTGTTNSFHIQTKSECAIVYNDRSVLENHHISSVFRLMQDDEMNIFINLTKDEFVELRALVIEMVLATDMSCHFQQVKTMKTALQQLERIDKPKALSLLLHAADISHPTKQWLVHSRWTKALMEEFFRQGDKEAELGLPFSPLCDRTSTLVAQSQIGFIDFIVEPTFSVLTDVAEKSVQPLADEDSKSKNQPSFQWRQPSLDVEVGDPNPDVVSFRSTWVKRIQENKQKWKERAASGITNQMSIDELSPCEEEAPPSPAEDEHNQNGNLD
SMILES,IC50 (PDE1C) [nM],IC50 (PDE1B) [nM],IC50 (PDE1A) [nM]
"CCOc1ncccc1-c1cc(NCc2cccn3cncc23)c2c(n1)c(C)nn2C(C)C [Example 8a, 5-(2-ethoxy-3-pyridyl)-N-(imidazo[1,5-a]pyridin-8-ylmethyl)-1-isopropyl-3-methyl-pyrazolo[4,3-b]pyridin-7-amine]",9.1,0.18,3.2
"CCOc1nnccc1-c1cc(NCc2nnc(C)o2)c2c(n1)c(C)nn2C(C)C [Example 8b, 5-(3-ethoxypyridazin-4-yl)-1-isopropyl-3-methyl-N-[(5-methyl-1,3,4-oxadiazol-2-yl)methyl]pyrazolo[4,3-b]pyridin-7-amine]",320,14,97
"CCOc1ncccc1-c1cc(NCc2cccc3ncoc23)c2c(n1)c(C)nn2C(C)C [Example 9a, N-(1,3-benzoxazol-7-ylmethyl)-5-(2-ethoxy-3-pyridyl)-1-isopropyl-3-methyl-pyrazolo[4,3-b]pyridin-7-amine]",82,5.3,45
"CCOc1nnccc1-c1cc(NCc2ccn(C)n2)c2c(n1)c(C)nn2C(C)C [Example 9b, 5-(3-ethoxypyridazin-4-yl)-1-isopropyl-3-methyl-N-[(1-methylpyrazol-3-yl)methyl]pyrazolo[4,3-b]pyridin-7-amine]",22,0.6,5.2
"CCOc1nnccc1-c1cc(NCc2ncc(F)cn2)c2c(n1)c(C)nn2C(C)C [Example 10b, 5-(3-ethoxypyridazin-4-yl)-N-[(5-fluoropyrimidin-2-yl)methyl]-1-isopropyl-3-methyl-pyrazolo[4,3-b]pyridin-7-amine]",67,2.4,21
"CCOc1ncccc1-c1cc(NCc2cccc3oc(C)nc23)c2c(n1)c(C)nn2C(C)C [Example 11a, 5-(2-ethoxy-3-pyridyl)-1-isopropyl-3-methyl-N-[(2-methyl-1,3-benzoxazol-4-yl)methyl]pyrazolo[4,3-b]pyridin-7-amine]",26,4,18
"CCOc1nnccc1-c1cc(NCc2nccc(C)n2)c2c(n1)c(C)nn2C(C)C [Example 11b, 5-(3-ethoxypyridazin-4-yl)-1-isopropyl-3-methyl-N-[(4-methylpyrimidin-2-yl)methyl]pyrazolo[4,3-b]pyridin-7-amine]",160,4.4,38
"CCOc1ncccc1-c1cc(NCc2ccc3oc(C)nc3c2)c2c(n1)c(C)nn2C(C)C [Example 12a, 5-(2-ethoxy-3-pyridyl)-1-isopropyl-3-methyl-N-[(2-methyl-1,3-benzoxazol-5-yl)methyl]pyrazolo[4,3-b]pyridin-7-amine]",31,0.81,8.7
"CCOc1cnccc1-c1cc(NCc2cccc(F)n2)c2c(n1)c(C)nn2C(C)C [Example 12b, 5-(3-ethoxy-4-pyridyl)-N-[(6-fluoro-2-pyridyl)methyl]-1-isopropyl-3-methyl-pyrazolo[4,3-b]pyridin-7-amine]",61,1.1,22
"CCOc1nnccc1-c1cc(NCc2cccc3ocnc23)c2c(n1)c(C)nn2C(C)C [Example 13a, N-(1,3-benzoxazol-4-ylmethyl)-5-(3-ethoxypyridazin-4-yl)-1-isopropyl-3-methyl-pyrazolo[4,3-b]pyridin-7-amine]",93,1.7,39
"CCOc1cnccc1-c1cc(NCc2cc[nH]n2)c2c(n1)c(C)nn2C(C)C [Example 13b, 5-(3-ethoxy-4-pyridyl)-1-isopropyl-3-methyl-N-(1H-pyrazol-3-ylmethyl)pyrazolo[4,3-b]pyridin-7-amine]",56,2.5,24
"CCOc1ncccc1-c1cc(NCc2nccc3nncn23)c2c(n1)c(C)nn2C(C)C [Example 15a, N-([1,2,4]triazolo[4,3-c]pyrimidin-5-ylmethyl)-5-(2-ethoxypyridin-3-yl)-1-isopropyl-3-methyl-1H-pyrazolo[4,3-b]pyridin-7-amine]",43,4.8,30
"CCOc1cnccc1-c1cc(NCc2ccccn2)c2c(n1)c(C)nn2C(C)C [Example 15b, 5-(3-ethoxy-4-pyridyl)-1-isopropyl-3-methyl-N-(2-pyridylmethyl)pyrazolo[4,3-b]pyridin-7-amine]",55,1.4,17
"CCOc1ncccc1-c1cc(NCc2nccc3nccn23)c2c(n1)c(C)nn2C(C)C [Example 16a, 5-(2-ethoxypyridin-3-yl)-N-(imidazo[1,2-c]pyrimidin-5-ylmethyl)-1-isopropyl-3-methyl-1H-pyrazolo[4,3-b]pyridin-7-amine]",44,4,35
"CCOc1nnccc1-c1cc(NCc2cccnc2F)c2c(n1)c(C)nn2C(C)C [Example 16b, 5-(3-ethoxypyridazin-4-yl)-N-[(2-fluoro-3-pyridyl)methyl]-1-isopropyl-3-methyl-pyrazolo[4,3-b]pyridin-7-amine]",50,3.4,18
"CCOc1cnccc1-c1cc(NCc2cccnc2F)c2c(n1)c(C)nn2C(C)C [Example 17b, 5-(3-ethoxy-4-pyridyl)-N-[(2-fluoro-3-pyridyl)methyl]-1-isopropyl-3-methyl-pyrazolo[4,3-b]pyridin-7-amine]",37,2.4,20
"CCOc1nnccc1-c1cc(NCc2ncn(C)n2)c2c(n1)c(C)nn2C(C)C [Example 18b, 5-(3-ethoxypyridazin-4-yl)-1-isopropyl-3-methyl-N-[(1-methyl-1,2,4-triazol-3-yl)methyl]pyrazolo[4,3-b]pyridin-7-amine]",17,0.59,3.6
"CCOc1cnccc1-c1cc(NCc2ncn(C)n2)c2c(n1)c(C)nn2C(C)C [Example 19b, 5-(3-ethoxy-4-pyridyl)-1-isopropyl-3-methyl-N-[(1-methyl-1,2,4-triazol-3-yl)methyl]pyrazolo[4,3-b]pyridin-7-amine]",22,0.91,11
"CCOc1nnccc1-c1cc(NCc2cnc(C)s2)c2c(n1)c(C)nn2C(C)C [Example 20b, 5-(3-ethoxypyridazin-4-yl)-1-isopropyl-3-methyl-N-[(2-methylthiazol-5-yl)methyl]pyrazolo[4,3-b]pyridin-7-amine]",24,1.1,5.7
"CCOc1cnccc1-c1cc(NCc2cnc(C)s2)c2c(n1)c(C)nn2C(C)C [Example 21b, 5-(3-ethoxy-4-pyridyl)-1-isopropyl-3-methyl-N-[(2-methylthiazol-5-yl)methyl]pyrazolo[4,3-b]pyridin-7-amine]",14,0.64,5.6
"CCOc1cnccc1-c1cc(NCc2cc(C)[nH]n2)c2c(n1)c(C)nn2C(C)C [Example 23b, 5-(3-ethoxy-4-pyridyl)-1-isopropyl-3-methyl-N-[(5-methyl-1H-pyrazol-3-yl)methyl]pyrazolo[4,3-b]pyridin-7-amine]",12,0.55,5.5
"CCOc1cnccc1-c1cc(NCc2cccc(OC)n2)c2c(n1)c(C)nn2C(C)C [Example 25b, 5-(3-ethoxy-4-pyridyl)-1-isopropyl-N-[(6-methoxy-2-pyridyl)methyl]-3-methyl-pyrazolo[4,3-b]pyridin-7-amine]",53,1.6,17
"CCOc1cnccc1-c1cc(NCc2ccn(C)n2)c2c(n1)c(C)nn2C(C)C [Example 27b, 5-(3-ethoxy-4-pyridyl)-1-isopropyl-3-methyl-N-[(1-methylpyrazol-3-yl)methyl]pyrazolo[4,3-b]pyridin-7-amine]",42,1.6,17
"COc1cnccc1-c1cc(NCc2cnn(C)c2)c2c(n1)c(C)nn2C(C)C [Example 29b, 1-isopropyl-5-(3-methoxy-4-pyridyl)-3-methyl-N-[(1-methylpyrazol-4-yl)methyl]pyrazolo[4,3-b]pyridin-7-amine]",44,4.9,32
"CCOc1cnccc1-c1cc(NCc2cccnc2OC)c2c(n1)c(C)nn2C(C)C [Example 30b, 5-(3-ethoxy-4-pyridyl)-1-isopropyl-N-[(2-methoxy-3-pyridyl)methyl]-3-methyl-pyrazolo[4,3-b]pyridin-7-amine]",65,2.7,27
"CCCOc1cnccc1-c1cc(NCc2cnn(C)c2)c2c(n1)c(C)nn2C(C)C [Example 31b, 1-isopropyl-3-methyl-N-[(1-methylpyrazol-4-yl)methyl]-5-(3-propoxy-4-pyridyl)pyrazolo[4,3-b]pyridin-7-amine]",18,0.38,4.6
"CCOc1cnccc1-c1cc(NCc2nnc(C)o2)c2c(n1)c(C)nn2C(C)C [Example 34b, 5-(3-ethoxy-4-pyridyl)-1-isopropyl-3-methyl-N-[(5-methyl-1,3,4-oxadiazol-2-yl)methyl]pyrazolo[4,3-b]pyridin-7-amine]",130,7,49
"Cc1nc2cccc(-c3cc(NCc4cnn(C)c4)c4c(n3)c(C)nn4C(C)C)c2o1 [Example 36b, 1-isopropyl-3-methyl-5-(2-methyl-1,3-benzoxazol-7-yl)-N-[(1-methylpyrazol-4-yl)methyl]pyrazolo[4,3-b]pyridin-7-amine]",28,2.4,14
"Cc1nn(C(C)C)c2c(NCc3cnn(C)c3)cc(-c3cccc4ncoc34)nc12 [Example 37b, 5-(1,3-benzoxazol-7-yl)-1-isopropyl-3-methyl-N-[(1-methylpyrazol-4-yl)methyl]pyrazolo[4,3-b]pyridin-7-amine]",14,2.4,16
